# Target: T1, hemoglobin (Homo sapiens, UniProt P69905)
# T1 construct: from tissue; host or cells: whole blood (red blood cells)
# Assay: Whole blood assay: oxygen equilibrium curves (Hemox Analyzer), change in p50
# Assay type: cell-based
# Conditions: whole blood 20% Hct (1 mM Hb), compound 1 mM, equimolar to hemoglobin, 1 h at 37° C.
# Experimental: Oxygen equilibrium curves (OECs) were collected using a TCS Hemox Analyzer (TCS Scientific Company, New Hope, Pa., USA) to measure changes in the binding affinity of 02 to Hb. Whole blood was incubated for 1 h at 37° C. with the indicated compounds in an equimolar ratio of hemoglobin to compound and diluted into TES (2-[[1,3-dihydroxy-2-(hydroxymethyl)propan-2-yl]amino]ethanesulfonic acid)/saline buffer prior to measurements. For example, for whole blood at 20% hematocrit [Hct], which corresponds to 1 mM Hb, a compound concentration of 1 mM was used (for example, for compounds 1-53), and the incubated sample diluted 50- to 100-fold. The concentration for compound 54 was 1.7 mM and in equimolar ratio to hemoglobin. The diluted samples were then oxygenated with compressed air within the Hemox Analyzer, and the OECs were collected during deoxygenation as previously described (Guarnone et al., Haematologica, 1995, 80, 426-430). p50 (partial pressure of 02 at which Hb is 50% saturated with 02) values were obtained using a non-linear regression analysis. Percentage change in p50 [Δp50(%)] was calculated as follows: Δp50(%)=[(p50 of control)−p50 with compound)/p50 control]×100.
# T1 sequence (P69905 2-142 limits assumed): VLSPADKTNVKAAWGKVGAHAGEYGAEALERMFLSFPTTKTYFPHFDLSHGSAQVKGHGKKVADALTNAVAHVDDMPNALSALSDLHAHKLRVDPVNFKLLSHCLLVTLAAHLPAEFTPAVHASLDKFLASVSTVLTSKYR
# T1 sequence (P68871 2-147 partner limits assumed): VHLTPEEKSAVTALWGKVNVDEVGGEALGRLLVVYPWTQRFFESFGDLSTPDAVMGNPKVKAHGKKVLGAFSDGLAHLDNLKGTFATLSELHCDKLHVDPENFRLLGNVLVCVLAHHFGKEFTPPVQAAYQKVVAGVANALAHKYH
row,SMILES,Delta-p50 (%)
1,"O=Cc1cccc(-c2ncccc2COc2cccc(O)c2C=O)c1 [Compound 8, 3-{3-[(2-formyl-3-hydroxyphenoxy)methyl]pyridin-2-yl}benzaldehyde]",44.8
2,"COc1ncc(C=O)cc1-c1ncccc1COc1cccc(O)c1C=O [Compound 7, 3-[(2-formyl-3-hydroxyphenoxy)methyl]-2′-methoxy-[2,3′-bipyridine]-5′-carbaldehyde]",32.5
3,"O=Cc1cc(-c2ncccc2COc2cccc(O)c2C=O)co1 [Compound 11, 4-{3-[(2-formyl-3-hydroxyphenoxy)methyl]pyridin-2-yl}furan-2-carbaldehyde]",17.2
4,"O=Cc1cccc(-c2ccncc2COc2cccc(O)c2C=O)n1 [Compound 42, 3′-[(2-formyl-3-hydroxyphenoxy)methyl]-[2,4′-bipyridine]-6-carbaldehyde]",17.4
5,"O=Cc1ncc(-c2ncccc2COc2cccc(O)c2C=O)o1 [Compound 14, 5-(3-((2-formyl-3-hydroxyphenoxy)methyl)pyridin-2-yl)oxazole-2-carbaldehyde]",17.8
6,"O=Cc1cc(-c2ncccc2COc2cccc(O)c2C=O)ccn1 [Compound 9, 3-[(2-formyl-3-hydroxyphenoxy)methyl]-[2,4′-bipyridine]-2′-carbaldehyde]",36.1
7,"Cc1cccc(C(=O)N2CCCC[C@@H]2COc2cccc(O)c2C=O)c1C=O [Compound 46, 2-[(2R)-2-[(2-formyl-3-hydroxyphenoxy)methyl]piperidine-1-carbonyl]-6-methylbenzaldehyde]",69
8,"O=Cc1ccccc1C(=O)N1CCC[C@H]1COc1cccc(O)c1C=O [Compound 20, 2-{[(2S)-1-(2-formylbenzoyl)pyrrolidin-2-yl]methoxy}-6-hydroxybenzaldehyde]",32
9,"COc1cccc(C(=O)N2CCCC[C@@H]2COc2cccc(O)c2C=O)c1C=O [Compound 49, 2-[(2R)-2-[(2-formyl-3-hydroxyphenoxy)methyl]piperidine-1-carbonyl]-6-methoxybenzaldehyde]",59
10,"O=Cc1ccccc1C(=O)N1CCOC[C@H]1COc1cccc(O)c1C=O [Compound 36, 2-{[(3S)-4-(2-formylbenzoyl)morpholin-3-yl]methoxy}-6-hydroxybenzaldehyde]",77
11,"COc1ccc(C=O)cc1-c1ncccc1COc1cccc(O)c1C=O [Compound 6, 3-{3-[(2-formyl-3-hydroxyphenoxy)methyl]pyridin-2-yl}-4-methoxybenzaldehyde]",16.7
12,"O=Cc1cccc(-c2ncccc2COc2cccc(O)c2C=O)n1 [Compound 10, 3′-[(2-formyl-3-hydroxyphenoxy)methyl]-[2,2′-bipyridine]-6-carbaldehyde]",0.2
13,"COc1cccc(C(=O)N2CCOC[C@H]2COc2cccc(O)c2C=O)c1C=O [Compound 48, 2-[(3S)-3-[(2-formyl-3-hydroxyphenoxy)methyl]morpholine-4-carbonyl]-6-methoxybenzaldehyde]",70.3

# Same assay, conditions: whole blood, compound 1.7 mM, equimolar to hemoglobin, 1 h at 37° C.
row,SMILES,Delta-p50 (%)
1,"CC1(COc2cccc(O)c2C=O)COCCN1C(=O)c1cccc(O)c1C=O (centres unmarked) [Compound 54, 2-((4-(2-formyl-3-hydroxybenzoyl)-3-methylmorpholin-3-yl)methoxy)-6-hydroxybenzaldehyde]",72.6

# Target: Purified hemoglobin (Homo sapiens, UniProt P69905)
# Assay: Hemoglobin assay: oxygen equilibrium curves with purified hemoglobin, change in p50
# Assay type: biochemical
# Conditions: purified hemoglobin 25 μM, compound 25 μM, 1 h at 37° C.
# Experimental: Hemoglobin assay: Oxygen equilibrium curves (OECs) were collected as described above. Purified hemoglobin (25 μM) was incubated for 1 h at 37° C. with the indicated compounds (30 μM for compounds 6, 7, 8, and 11; 25 μM for compounds 55 to 67 (Enantiomer 1 and Enantiomer 2)) in 5 ml of TES (2-[[1,3-dihydroxy-2-(hydroxymethyl)propan-2-yl]amino]ethanesulfonic acid)/saline buffer prior to measurements. The samples were then oxygenated with compressed air within the Hemox Analyzer and the OECs were collected during deoxygenation as previously described. p50 values were obtained using a non-linear regression analysis, and Δp50(%) was calculated as described above.
# Purified hemoglobin, sequence (P69905 2-142 limits assumed): as the sequence (P69905 2-142 limits assumed) above
# Purified hemoglobin, sequence (P68871 2-147 partner limits assumed): as the sequence (P68871 2-147 partner limits assumed) above
row,SMILES,Delta-p50 (%)
1,"CC1CN(C(=O)c2cccc(O)c2C=O)C(COc2cccc(O)c2C=O)CO1 (centres unmarked) [Compound 60, 2-((4-(2-formyl-3-hydroxybenzoyl)-6-methylmorpholin-3-yl)methoxy)-6-hydroxybenzaldehyde]",67
2,"CC1(C)C[C@@H](COc2cccc(O)c2C=O)N(C(=O)c2cccc(O)c2C=O)C1 [Compound 65, 2-[[(2S)-1-(2-formyl-3-hydroxybenzoyl)-4,4-dimethylpyrrolidin-2-yl]methoxy]-6-hydroxybenzaldehyde]",69
3,"O=Cc1ccccc1OC[C@@H]1COCCN1C(=O)c1cccc(O)c1C=O [Compound 56, (S)-2-(3-((2-formylphenoxy)methyl)morpholine-4-carbonyl)-6-hydroxybenzaldehyde]",70
4,"COc1ccc(C(=O)N2CCCC[C@H]2COc2cccc(O)c2C=O)c(C=O)c1O [Compound 57, (S)-6-(2-((2-formyl-3-hydroxyphenoxy)methyl)piperidine-1-carbonyl)-2-hydroxy-3-methoxybenzaldehyde]",71
5,"O=Cc1c(O)cccc1OC[C@@H]1CCCN(C(=O)Oc2cccc(O)c2C=O)C1 [Compound 63, 2-formyl-3-hydroxyphenyl (3R)-3-(2-formyl-3-hydroxyphenoxymethyl)piperidine-1-carboxylate]",70
6,"O=Cc1c(O)cccc1OC[C@H]1CN(C(=O)c2cccc(O)c2C=O)CCO1 [Compound 59, 2-[[(2R)-4-(2-formyl-3-hydroxybenzoyl)morpholin-2-yl]methoxy]-6-hydroxybenzaldehyde]",71
7,"O=Cc1ccccc1OC[C@@H]1CCCCN1C(=O)c1cccc(O)c1C=O [Compound 55, (S)-2-(2-((2-formylphenoxy)methyl)piperidine-1-carbonyl)-6-hydroxybenzaldehyde]",71
8,"O=Cc1c(O)cccc1OC[C@H]1CN(C(=O)c2cccc(O)c2C=O)CCO1 [Compound 62, 2-[[(2R)-4-(2-formyl-3-hydroxybenzoyl)morpholin-2-yl]methoxy]-6-hydroxybenzaldehyde]",69
9,"O=Cc1c(O)cccc1OCC1CSCCN1C(=O)c1cccc(O)c1C=O (single isomer, unassigned) [67 (Enantiomer 1), 2-((4-(2-formyl-3-hydroxybenozyl)thiomorpholin-3-yl)methoxy)-6-hydroxybenzaldehyde]",67.2
10,"O=Cc1cc(C(=O)N2CCC[C@@H](COc3cccc(O)c3C=O)C2)ccc1O [Compound 61, 2-[[(3R)-1-(3-formyl-4-hydroxybenzoyl)piperidin-3-yl]methoxy]-6-hydroxybenzaldehyde]",71
11,O=Cc1cccc(C(=O)N2CCC[C@@H](COc3cccc(O)c3C=O)C2)c1O [Compound 58],71
12,"O=Cc1c(O)cccc1CN1C(=O)CCCC1COc1cccc(O)c1C=O (racemic) [Compound 66, 2-((1-(2-formyl-3-hydroxybenzyl)-6-oxopiperidin-2-yl)methoxy)-6-hydroxybenzaldehyde]",71
13,"O=Cc1c(O)cccc1OCC1CSCCN1C(=O)c1cccc(O)c1C=O (single isomer, unassigned) [67 (Enantiomer 2), 2-((4-(2-formyl-3-hydroxybenzoyl)thiomorpholin-3-yl)methoxy)-6-hydroxybenzaldehyde]",69.3
14,CC1(C)CN(C(=O)c2cccc(O)c2C=O)C(COc2cccc(O)c2C=O)CO1 (stereo in doubt) [Compound 64],67

# Same assay, conditions: purified hemoglobin 25 μM, compound 30 μM, 1 h at 37° C.
row,SMILES,Delta-p50 (%)
1,"O=Cc1cccc(-c2ncccc2COc2cccc(O)c2C=O)c1 [Compound 8, 3-{3-[(2-formyl-3-hydroxyphenoxy)methyl]pyridin-2-yl}benzaldehyde]",57.3
2,"COc1ncc(C=O)cc1-c1ncccc1COc1cccc(O)c1C=O [Compound 7, 3-[(2-formyl-3-hydroxyphenoxy)methyl]-2′-methoxy-[2,3′-bipyridine]-5′-carbaldehyde]",58.29
3,"O=Cc1cc(-c2ncccc2COc2cccc(O)c2C=O)co1 [Compound 11, 4-{3-[(2-formyl-3-hydroxyphenoxy)methyl]pyridin-2-yl}furan-2-carbaldehyde]",14.12
4,"COc1ccc(C=O)cc1-c1ncccc1COc1cccc(O)c1C=O [Compound 6, 3-{3-[(2-formyl-3-hydroxyphenoxy)methyl]pyridin-2-yl}-4-methoxybenzaldehyde]",60.66
